Measured values as given in the RepoRT retention time repository (doi:10.1016/j.jchromb.2020.122105).

How the values were obtained:
Details in all cases: stereoisomer not certain
[1] = RP, Waters ACQUITY UPLC BEH C18, 100 × 2.1 mm, 1.7 µm, 0.2 mL/min, estimated dead time 1.1 min; A: water + 0.1% formic acid, pH 3; B: methanol + 0.1% formic acid, pH 3; gradient (min/%B) 0/5 5/5 25/100 30/100 30.1/5 35/5
[2] = HILIC, Merck SeQuant ZIC-HILIC, 150 × 2.1 mm, 5 µm, 0.75 mL/min, estimated dead time 0.44 min; A: water + 10 mM ammonium formate, pH 6; B: 5% water + 95% acetonitrile + 10 mM ammonium formate, pH 6; gradient (min/%B) 0/95 5/95 20/57 25/57 30/95 40/95
[3] = RP, Waters CORTECS T3, 100 × 2.1 mm, 2.7 µm, 0.3 mL/min, estimated dead time 0.73 min; A: water + 0.1% formic acid, pH 3; B: methanol + 0.1% formic acid, pH 3; gradient (min/%B) 0/0 5/0 25/100 30/100 30.1/0 35/0
[4] = RP, Waters CORTECS T3, 100 × 2.1 mm, 2.7 µm, 0.2 mL/min, estimated dead time 1.1 min; A: water + 0.1% formic acid, pH 3; B: methanol + 0.1% formic acid, pH 3; gradient (min/%B) 0/0 1/0 6/5 30/100 35/100 35.1/0 40/0
[5] = RP, Waters ACQUITY UPLC BEH C18, 100 × 2.1 mm, 1.7 µm, 0.1 mL/min, estimated dead time 2.2 min; A: water + 0.1% formic acid, pH 3; B: methanol + 0.1% formic acid, pH 3; gradient (min/%B) 0/5 5/5 25/95 25.1/100 35/100 35.1/5 45/5
[6] = HILIC, Thermo Scientific Accucore HILIC, 100 × 2.1 mm, 2.6 µm, 0.5 mL/min, estimated dead time 0.44 min; A: water + 0.1% formic acid + 10 mM ammonium formate, pH 3; B: 5% water + 95% acetonitrile + 0.1% formic acid + 10 mM ammonium formate, pH 3; gradient (min/%B) 0/95 5/95 20/57 25/57 30/95 40/95
[7] = RP, Waters CORTECS T3, 100 × 2.1 mm, 2.7 µm, 0.3 mL/min, estimated dead time 0.73 min; A: water + 0.1% formic acid, pH 3; B: methanol + 0.1% formic acid, pH 3; gradient (min/%B) 0/0 1/0 6/5 30/100 35/100 35.1/0 40/0
[8] = RP, Waters ACQUITY UPLC BEH C18, 100 × 2.1 mm, 1.7 µm, 0.2 mL/min, estimated dead time 1.1 min; A: water + 0.025% formic acid + 20 mM ammonium acetate + 0.055% ammonium hydroxide, pH 7; B: methanol; gradient (min/%B) 0/5 5/5 25/100 30/100 30.1/5 35/5
[9] = RP, Waters CORTECS T3, 100 × 2.1 mm, 2.7 µm, 0.25 mL/min, estimated dead time 0.88 min; A: water + 0.1% formic acid, pH 3; B: methanol + 0.1% formic acid, pH 3; gradient (min/%B) 0/5 5/5 25/95 25.1/100 35/100 35.1/5 45/5
[10] = HILIC, Merck SeQuant ZIC-HILIC, 150 × 2.1 mm, 5 µm, 0.75 mL/min, estimated dead time 0.44 min; A: water + 0.1% acetic acid + 10 mM ammonium acetate, pH 4; B: 5% water + 95% acetonitrile + 0.1% acetic acid + 10 mM ammonium acetate, pH 4; gradient (min/%B) 0/95 5/95 20/57 25/57 30/95 40/95
[11] = HILIC, Waters XBridge BEH Amide, 100 × 2.1 mm, 2.5 µm, 0.5 mL/min, estimated dead time 0.44 min; A: water + 0.1% acetic acid + 10 mM ammonium acetate, pH 4; B: 5% water + 95% acetonitrile + 0.1% acetic acid + 10 mM ammonium acetate, pH 4; gradient (min/%B) 0/95 5/95 20/57 25/57 30/95 40/95
[12] = RP, Waters CORTECS T3, 100 × 2.1 mm, 2.7 µm, 0.2 mL/min, estimated dead time 1.1 min; A: water + 0.1% formic acid, pH 3; B: methanol + 0.1% formic acid, pH 3; gradient (min/%B) 0/5 5/5 25/95 25.1/100 35/100 35.1/5 45/5
[13] = RP, Waters CORTECS T3, 100 × 2.1 mm, 2.7 µm, 0.15 mL/min, estimated dead time 1.5 min; A: water + 0.1% formic acid, pH 3; B: methanol + 0.1% formic acid, pH 3; gradient (min/%B) 0/5 5/5 25/95 25.1/100 35/100 35.1/5 45/5
[14] = RP, Waters CORTECS T3, 100 × 2.1 mm, 2.7 µm, 0.1 mL/min, estimated dead time 2.2 min; A: water + 0.1% formic acid, pH 3; B: methanol + 0.1% formic acid, pH 3; gradient (min/%B) 0/5 5/5 25/95 25.1/100 35/100 35.1/5 45/5
[15] = RP, Waters ACQUITY UPLC BEH C18, 100 × 2.1 mm, 1.7 µm, 0.1 mL/min, estimated dead time 2.2 min; A: water + 0.1% formic acid, pH 3; B: methanol + 0.1% formic acid, pH 3; gradient (min/%B) 0/5 5/5 25/100 30/100 30.1/5 35/5
[16] = RP, Waters CORTECS T3, 100 × 2.1 mm, 2.7 µm, 0.25 mL/min, estimated dead time 0.88 min; A: water + 0.1% formic acid, pH 3; B: methanol + 0.1% formic acid, pH 3; gradient (min/%B) 0/0 1/0 6/5 30/100 35/100 35.1/0 40/0
[17] = RP, Waters CORTECS T3, 100 × 2.1 mm, 2.7 µm, 0.3 mL/min, estimated dead time 0.73 min; A: water + 0.1% formic acid, pH 3; B: methanol + 0.1% formic acid, pH 3; gradient (min/%B) 0/5 5/5 25/100 30/100 30.1/5 35/5
[18] = RP, Waters ACQUITY UPLC BEH C18, 100 × 2.1 mm, 1.7 µm, 0.1 mL/min, estimated dead time 2.2 min; A: water + 0.1% formic acid, pH 3; B: methanol + 0.1% formic acid, pH 3; gradient (min/%B) 0/5 5/5 25/95 25.1/100 35/100 35.1/5 45/5; remark: listed apart in the source
[19] = RP, Waters ACQUITY UPLC BEH C18, 100 × 2.1 mm, 1.7 µm, 0.1 mL/min, estimated dead time 2.2 min; A: water + 0.045% formic acid + 0.11% ammonium hydroxide, pH 7; B: methanol; gradient (min/%B) 0/5 5/5 25/95 25.1/100 35/100 35.1/5 45/5
[20] = RP, Waters CORTECS T3, 100 × 2.1 mm, 2.7 µm, 0.2 mL/min, estimated dead time 1.1 min; A: water + 0.1% formic acid, pH 3; B: methanol + 0.1% formic acid, pH 3; gradient (min/%B) 0/0 1/0 6/5 30/100 35/100 35.1/0 40/0; remark: listed apart in the source
[21] = RP, Waters CORTECS T3, 100 × 2.1 mm, 2.7 µm, 0.3 mL/min, estimated dead time 0.73 min; A: water + 0.1% formic acid, pH 3; B: methanol + 0.1% formic acid, pH 3; gradient (min/%B) 0/0 1/0 6/5 30/100 35/100 35.1/0 40/0; remark: listed apart in the source
[22] = RP, Waters CORTECS T3, 100 × 2.1 mm, 2.7 µm, 0.3 mL/min, estimated dead time 0.73 min; A: water + 0.1% formic acid, pH 3; B: methanol + 0.1% formic acid, pH 3; gradient (min/%B) 0/5 5/5 25/95 25.1/100 35/100 35.1/5 45/5
[23] = RP, Waters CORTECS T3, 100 × 2.1 mm, 2.7 µm, 0.3 mL/min, estimated dead time 0.73 min; A: water + 0.1% formic acid, pH 3; B: methanol + 0.1% formic acid, pH 3; gradient (min/%B) 0/0 5/0 25/100 30/100 30.1/0 35/0; remark: listed apart in the source
[24] = RP, Waters ACQUITY UPLC BEH C18, 100 × 2.1 mm, 1.7 µm, 0.1 mL/min, estimated dead time 2.2 min; A: water + 0.1% formic acid, pH 3; B: methanol + 0.1% formic acid, pH 3; gradient (min/%B) 0/5 5/5 25/95 25.1/100 35/100 35.1/5 45/5; remark: listed apart in the source
[25] = RP, Waters CORTECS T3, 100 × 2.1 mm, 2.7 µm, 0.15 mL/min, estimated dead time 1.5 min; A: water + 0.1% formic acid, pH 3; B: methanol + 0.1% formic acid, pH 3; gradient (min/%B) 0/0 1/0 6/5 30/100 35/100 35.1/0 40/0
[26] = RP, Waters CORTECS T3, 100 × 2.1 mm, 2.7 µm, 0.1 mL/min, estimated dead time 2.2 min; A: water + 0.1% formic acid, pH 3; B: methanol + 0.1% formic acid, pH 3; gradient (min/%B) 0/0 1/0 6/5 30/100 35/100 35.1/0 40/0

O=C(O)c1ccc2ccccc2c1[O-] [1-HYDROXY-2-NAPHTHOATE]
LC retention time [1]: 21.1 min | LC retention time [2]: 1.33 min | LC retention time [3]: 19.1 min | LC retention time [4]: 23.3 min | LC retention time [5]: 25.1 min | LC retention time [6]: 0.82 min | LC retention time [7]: 21.7 min | LC retention time [8]: 14.1 min | LC retention time [9]: 19.9 min | LC retention time [10]: 1.27 min | LC retention time [11]: 1.05 min | LC retention time [12]: 26.8 min | LC retention time [13]: 21.9 min

N[C@@H](Cc1cc(I)c(O)c(I)c1)C(=O)O [3,5-DIIODO-L-TYROSINE]
LC retention time [14]: 15.8 min | LC retention time [15]: 15.8 min | LC retention time [16]: 13.3 min | LC retention time [17]: 10.9 min | LC retention time [18]: 16.1 min | LC retention time [19]: 10.8 min | LC retention time [20]: 14.1 min | LC retention time [21]: 12.6 min | LC retention time [6]: 9.05 min | LC retention time [22]: 11.1 min | LC retention time [23]: 12 min | LC retention time [24]: 16.1 min | LC retention time [25]: 15.4 min | LC retention time [26]: 12.5 min

O=C([O-])CCc1ccccc1O [3-(2-HYDROXYPHENYL)PROPANOATE]
LC retention time [1]: 14.4 min | LC retention time [2]: 1.85 min | LC retention time [3]: 13.3 min | LC retention time [4]: 15.9 min | LC retention time [5]: 18.3 min | LC retention time [6]: 0.87 min | LC retention time [7]: 14.2 min | LC retention time [8]: 6.28 min | LC retention time [9]: 13.2 min | LC retention time [10]: 2.27 min | LC retention time [11]: 1.75 min | LC retention time [12]: 19.6 min | LC retention time [13]: 15.5 min

Cc1ncc(CO)c(C(=O)O)c1O [4-PYRIDOXATE]
LC retention time [1]: 3.4 min | LC retention time [2]: 1.42 min | LC retention time [3]: 4.79 min | LC retention time [4]: 6.16 min | LC retention time [5]: 6.57 min | LC retention time [6]: 1.15 min | LC retention time [7]: 4.57 min | LC retention time [8]: 3.81 min | LC retention time [9]: 2.84 min | LC retention time [10]: 1.41 min | LC retention time [11]: 1.28 min | LC retention time [12]: 10.4 min | LC retention time [13]: 4.64 min

O=c1[nH]c(=O)c2[nH]c(=O)[nH]c2[nH]1 [URATE]
LC retention time [1]: 1.38 min | LC retention time [2]: 12.3 min | LC retention time [3]: 0.93 min | LC retention time [14]: 2.66 min | LC retention time [4]: 1.38 min | LC retention time [15]: 2.74 min | LC retention time [5]: 2.7 min | LC retention time [17]: 0.93 min | LC retention time [18]: 2.72 min | LC retention time [6]: 8.77 min | LC retention time [7]: 0.92 min | LC retention time [8]: 1.36 min | LC retention time [22]: 0.9 min | LC retention time [9]: 1.08 min | LC retention time [10]: 11.6 min | LC retention time [24]: 2.66 min | LC retention time [12]: 2.72 min | LC retention time [13]: 1.78 min
